Read-outs that look alike come from different tables or passages of the source.
Assays:
FP receptor [1] = molecular target: T1, FP receptor (Homo sapiens, UniProt P43088); assay: Antagonist Ca2+ assay: FP antagonists on PGF2α-stimulated Ca2+ transients in MYLA cells; assay type: cell-based; design: endogenous in cells; host or cells: MYLA cells (conditionally immortalised human myometrial cells; hTERT + temperature-sensitive SV40 large T)
Method: (§1) MYLA cells were grown to 95%–100% confluency in 3 cm^2 glass-bottom dishes (MatTek Corporation, MA, United States). The cells were serum starved for 24–48 h with 2% DMEM/F12 media and then incubated with 5 μM Calbryte^TM 520 AM (Stratech Scientific Ltd., Ely, United Kingdom) for 60 min at 37°C in a 95%/5% air/CO2-humidified environment, followed by 15 min at room temperature in the dark. […] The plates were then loaded on the stage of an Olympus IX81 inverted microscope and visualised with a 10x objective lens. Temperatures were maintained at 37°C. Calbryte^TM 520 AM was excited at Ex/Em: 490/525 nm. The cells were imaged for 3 min to allow any initial LED-induced Ca^2+ signalling to subside. […] Fluorescence was captured at a rate of one frame per second for 3 min, with agonist/antagonist injections occurring after a 30-s basal period.
(§2) Data analysis: Videos were visualised, and data were analysed using ImageJ, the image analysis software. […] The frequency of Ca^2+ oscillations was calculated as the average number of oscillations over time in seconds (Hz). All data were visualised using the GraphPad Prism 9 software.
(§3) Experiments were repeated on MYLA cells, where N represents the number of biological repeats.

[2] = test system: induced pulmonary fibrosis mouse models; design: method as in Beck et al., 2020; conditions: ref Beck et al., 2020; cited from earlier work
MYLA cells [3] = assay: RT-qPCR of OXTR, CALD1 and MYLK expression in MYLA cells; assay type: cell-based, human; conditions: for OXTR, CALD1, and MYLK expression at 48 h (RT-qPCR): 1 µM PGF2α + 1 µM antagonist vs 1 µM PGF2α; for Expression of OXTR, CALD1, and MYLK (RT-qPCR time series): 1 µM PGF2α + 1 µM antagonist, 1–48 h
FP receptor [4] = molecular target: T1, FP receptor; assay: [35S]-GTPγS immunoprecipitation assay of Gα-subunit coupling in MYLA cell membranes
Method: Tissue preparation: MYLA cells were grown to 95%–100% confluency in a T175 flask, lifted, and pelleted via standard cell culture techniques. The harvested cells were homogenised in ice-cold lysis buffer (composition (mM): HEPES, 20; EDTA, 1; MgCl2, 2; KCl, 10; DTT, 2; pH, 7.4) using a Coleman handheld homogeniser. The homogenates were cleared (1,000×g, 10 min, 4°C) and membranes were collected by centrifugation (16,100×g, 90 min, 4°C). The membranes were resuspended in freezing buffer [composition (mM): HEPES, 10; MgCl2, 1; DTT, 1; pH, 7.4], where the protein concentration was adjusted to 1.5 mg/mL and rapidly frozen in liquid nitrogen. The membranes were stored at −80°C until required.
Radioligand binding assay: 75 μg of membrane was added to 50 μL of assay buffer [composition (mM): HEPES, 10; MgCl2, 10; NaCl, 100; pH, 7.4] containing 1 nM [^35S]-GTPγS (1,250 Ci/mmol) and 10 μM GDP, with or without agonist and antagonists as required, and incubated at 30°C for 2 min. Non-specific binding (NSB) was determined by the inclusion of 10 μM unlabelled GTPγS. Incubation was terminated by the addition of 900 μL of ice-cold assay buffer, and the samples were transferred to ice. The cell membrane was recovered from the reaction mixture by centrifugation (16,100×g, 6 min, 4°C), and the supernatant was removed by aspiration. Membrane pellets were solubilised by the addition of 50 μL of ice-cold solubilisation buffer [composition (mM): Tris-HCl, 100; NaCl, 200; EDTA, 1; IGEPAL CA 630, 1.25% (v/v); 0.2% (w/v) SDS; pH, 7.4] and vortex mixing. […] The beads were washed and pelleted thrice with 500 μL of solubilisation buffer (less SDS) before re-suspension in Pico-Flour^TM scintillation cocktail (Perkin Elmer, Buckinghamshire, United Kingdom) where [^35S]-GTPγS was determined by standard liquid scintillation counting methods.
Data analysis: Specific binding was determined by CPM values and expressed as a % increase over basal (unstimulated), and plotted using the GraphPad Prism 9 software. […]

MYLA cells [5] = assay: RNA-Seq time series of marker gene expression in MYLA cells; assay type: cell-based, human
Method: The MYLA cells were seeded into a T75 flask and allowed to grow to 95%–100% confluency. […] The cells were harvested at T = 1, 3, 6, 9, 12, 24, and 48 h, pelleted (1,200 rpm, 5 min, 4°C), and snap frozen on dry ice before storage at −80°C.
RNA was extracted from pelleted cells using the GenElute^TM Total RNA Purification Kit (Sigma Aldrich, Poole, United Kingdom) according to the manufacturer’s instructions. RNA concentration and purity were determined using a NanoDrop 1000 Spectrophotometer (Thermo Fisher Scientific, Loughborough, United Kingdom). All RNA samples were stored at −80°C until use.
RNA quality was verified using a Bioanalyzer according to the manufacturer’s instructions (Eukaryote Total RNA Nano, Agilent). Illumina TruSeq RNA libraries were prepared and sequenced using a NextSeq 500 with a high-output 75 bp cycle cartridge (Illumina, Cambridge, United Kingdom) by the University of Warwick Genomic Facility.
bcl2fastq v2.20.0.422 was used for demultiplexing each sample. FastQC v0.11.9 was used to quality control check the demultiplexed FastQC files, and MultiQC v1.9 consolidated the QC reports. Reads were aligned to the human reference genome build GRCh38 release 86 using STAR version 2.7.9a. The number of reads mapped to each genomic feature was calculated with featureCounts v2.0.1. The counts were imported into R Studio and analysed with the DESeq2 package.
Data analysis: TPM data were processed and analysed using R Studio and then plotted using the GraphPad 9 software.
The experiments were technical triplicates of biological triplicate samples taken from seven time points. The data in Figures 8–10 were analysed by two-way ANOVA and post hoc Dunnett’s multiple comparison test comparing treatments to the ethanol vehicle.

FP receptor [6] = molecular target: T1, FP receptor; conditions: MYLA cells
Method: as §1, §2, §3

[7] = test system: transfected HEK-293 cell lines; design: method as in Martos et al., 2016; conditions: ref Martos et al., 2016; cited from earlier work
[8] = 300 pM–10 µM antagonist in the presence of 1 µM PGF2α, N = 3, read-out: IC50, effect on AUC
[9] = 300 pM–10 µM antagonist in the presence of 1 µM PGF2α, N = 3, read-out: IC50, effect on Fmax
[10] = 300 pM–10 µM antagonist in the presence of 1 µM PGF2α, N = 3, read-out: IC50, effect on frequency of Ca2+ oscillations
[11] = four-parameter fit, bottom constrained to 0
[12] = normalised to averaged ionomycin Fmax

T1 sequence (P43088 whole entry): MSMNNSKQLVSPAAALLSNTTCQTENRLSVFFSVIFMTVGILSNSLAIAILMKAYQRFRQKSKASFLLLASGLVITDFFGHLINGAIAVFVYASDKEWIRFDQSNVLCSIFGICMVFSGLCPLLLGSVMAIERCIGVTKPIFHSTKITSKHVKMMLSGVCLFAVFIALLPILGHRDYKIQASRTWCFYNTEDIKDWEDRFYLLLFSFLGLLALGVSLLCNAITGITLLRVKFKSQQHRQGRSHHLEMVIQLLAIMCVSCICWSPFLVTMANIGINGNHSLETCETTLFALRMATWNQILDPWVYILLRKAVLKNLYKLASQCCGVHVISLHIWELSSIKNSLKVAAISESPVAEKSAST

Compound	HillSlope ± SD, effect on AUC (FP receptor [1]; in the presence of 1 µM PGF2α)	HillSlope ± SD, effect on Fmax (FP receptor [1]; in the presence of 1 µM PGF2α)	HillSlope ± SD, effect on frequency (FP receptor [1]; in the presence of 1 µM PGF2α)	IC50 (FP receptor [1]; [8]) [nM]	IC50 (FP receptor [1]; [9]) [nM]	IC50 (FP receptor [1]; [10]) [nM]	further results
Cc1c(N2CCCC2)nc2ccc(Br)cc2c1C(=O)NCC(CCC(=O)O)c1ccccc1Cl (stereo not drawn) [Compound 46/47, 5-(6-bromo-3-methyl-2-(pyrrolidin-1-yl)quinoline-4-carboxamido)-4-(2-chlorophenyl)-pentanoic acid]	−1.37 ± 0.68	−1.02 ± 0.40	−0.69 ± 0.30	–	–	–	–
O=C(N[C@@H](CCO)c1ccc(F)cc1)[C@@H]1SCCN1S(=O)(=O)c1ccc(-c2ccccc2)cc1 [OBE002, [(S)-3-(biphenyl-4-sulfonyl)-thiazolidine-2-carboxylic acid [(S)-1-(4-fluorophenyl)-3-hydroxy-propyl]-amide]]	−0.41 ± 0.17	−0.38 ± 0.15	−0.36 ± 0.19	180	78.3	1980	pIC50 ± SD, effect on Fmax (FP receptor [1]; in the presence of 1 µM PGF2α, N = 3): 7.11 ± 0.68
Cc1c(N2CCCC2)nc2ccc(Br)cc2c1C(=O)NC[C@H](CCC(=O)O)c1ccccc1Cl [BAY-6672]	–	–	–	–	–	–	Effects in induced pulmonary fibrosis mouse models [2]: anti-inflammatory and antifibrotic effects
Cc1c(-c2ccccc2)nc2ccc(Br)cc2c1C(=O)NCC(CCC(=O)O)c1ccccc1Cl (stereo not drawn) [Compound 39/40, 5-(6-bromo-3-methyl-2-phenylquinoline-4-carboxamido)-4-(2-chlorophenyl) pentanoic acid]	−0.98 ± 0.27	−0.54 ± 1.63	−2.00 ± 0.56	90	284	154	OXTR, CALD1, and MYLK expression at 48 h (RT-qPCR) (MYLA cells [3]): significant decrease; Expression of OXTR, CALD1, and MYLK (RT-qPCR time series) (MYLA cells [3]): reduced; PGF2α-stimulated coupling to Gαq/11 (FP receptor [4]; 1 µM compound 39/40 + 1 µM PGF2α, 2 min): reversed
O=C(N[C@H](c1ccc(F)cc1)[C@H]1CCS(=O)(=O)C1)[C@@H]1CCN1S(=O)(=O)c1ccc(-c2cccnc2)cc1 [Compound N582707, (S)-N-((S)-((R)-1,1-dioxidotetrahydrothiophen-3-yl)(4-fluorophenyl)methyl)-1-((4-(pyridin-3-yl)phenyl)sulfonyl)azetidine-2-carboxamide]	–	−0.49 ± 0.20	−0.55 ± 0.17	50.4	21.3	22.1	OXTR, CALD1, and MYLK expression at 48 h (RT-qPCR) (MYLA cells [3]): significant decrease; Expression of OXTR, CALD1, and MYLK (RT-qPCR time series) (MYLA cells [3]): reduced; IC50 (FP receptor [1]; in the presence of 1 µM PGF2α, N = 3, read-out: pIC50 ± SD, effect on frequency of Ca2+ oscillations (converted)): 21.9 nM; Expression of fibroblast marker genes (DCN, FBLN1, LOXL1, PDGFRA) (MYLA cells [5]; 1 µM PGF2α + 1 µM FP antagonist, up to 48 h): increased the expression
CCCCC[C@H](O)/C=C/[C@@H]1[C@@H](C/C=C\CCCC(=O)O)[C@@H](O)C[C@H]1O [PGF2α, prostaglandin F2α]	–	–	–	–	–	–	[35S]-GTPγS binding to Gαq/11 (FP receptor [4]; 1 µM PGF2α vs basal, 2 min): significantly increased; Gαs and Gαi coupling (FP receptor [4]; stimulation with PGF2α): no effect; Effect on Fmax, AUC and frequency of intracellular Ca2+ oscillations compared to basal (FP receptor [6]; 300 pM to 10 µM PGF2α): concentration-dependent increase; HillSlope ± SEM, AUC (FP receptor [6]; [11]): 1.06 ± 0.45; HillSlope ± SEM, Fmax (FP receptor [6]; [11]): 0.91 ± 0.28; HillSlope ± SEM, Frequency (FP receptor [6]; [11]): 0.88 ± 0.33; Emax ± SEM, Frequency (FP receptor [6]; frequency of Ca2+ oscillations): 0.01 ± 0.01; Emax ± SEM, AUC (FP receptor [6]; [12]): 1.50 ± 0.14; Emax ± SEM, Fmax (FP receptor [6]; [12]): 0.14 ± 0.01; Expression of key genes involved in labour such as OXTR (also IL6, IL11) (MYLA cells [5]; 1 µM PGF2α vs vehicle, 1–48 h): upregulated; Expression of smooth muscle marker genes (ACTA2, CALD1, CNN1, COL4A1, COL4A2, MYLK, MYOCD, TAGLN, TGFB2, TGFB3) (MYLA cells [5]; 1 µM PGF2α, up to 48 h): increased expression
CC(C)Cn1ncc2cc(Cl)cc(Cn3nc(N)c4cc(C(=O)O)ccc43)c21 [Compound 68, 3-amino-1-((5-chloro-1-isobutyl-1H-indazol-7-yl)methyl)-1H-indazole-5-carboxylic acid]	−0.44 ± 0.19	−0.47 ± 0.19	−0.49 ± 0.17	175	194	978	Potency in FLIPR functional assays [7]: potent; IC50 (FP receptor [1]; in the presence of 1 µM PGF2α, N = 3, read-out: pIC50 ± SD, effect on AUC (converted)): 89.1 nM

— paper PMC10752971 (Frontiers in Pharmacology, 2023)
